The values below come from ChEMBL document CHEMBL1130938, “L-tryptophan urea amides as NK1/NK2 dual antagonists” (Bioorg Med Chem Lett, 1998).

Assay type in all cases: cell-based
One experiment addresses T1, Substance-K receptor (Homo sapiens, UniProt P21452).
T1 sequence (P21452 whole entry): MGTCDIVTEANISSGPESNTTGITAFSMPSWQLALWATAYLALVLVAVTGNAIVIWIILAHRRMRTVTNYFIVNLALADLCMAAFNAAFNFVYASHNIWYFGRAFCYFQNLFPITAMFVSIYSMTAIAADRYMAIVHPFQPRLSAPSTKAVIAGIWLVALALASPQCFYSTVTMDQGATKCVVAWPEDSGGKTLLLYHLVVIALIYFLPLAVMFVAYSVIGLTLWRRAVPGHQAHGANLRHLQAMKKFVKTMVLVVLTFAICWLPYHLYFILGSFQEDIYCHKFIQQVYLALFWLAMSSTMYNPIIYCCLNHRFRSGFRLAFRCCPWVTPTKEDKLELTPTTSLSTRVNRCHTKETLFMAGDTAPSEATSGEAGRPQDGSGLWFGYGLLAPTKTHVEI
The experiment is described as follows: Inhibition of cloned human NK2 (Neurokinin 2) receptor, stably expressed in chinese hamster ovary (CHO) cells was determined.

Experiment [1] deals with T2, Substance-P receptor (Homo sapiens, UniProt P25103). Description: (§1) Inhibition of cloned human NK1 (Neurokinin 1) receptor, stably expressed in chinese hamster ovary (CHO) cells was determined.
In experiment [2] the target is T2, Substance-P receptor. The experiment is described as §1. Particulars: concentration not given here.

A value given as a limit tells only on which side of the number the result lay.

T2 sequence (P25103 whole entry): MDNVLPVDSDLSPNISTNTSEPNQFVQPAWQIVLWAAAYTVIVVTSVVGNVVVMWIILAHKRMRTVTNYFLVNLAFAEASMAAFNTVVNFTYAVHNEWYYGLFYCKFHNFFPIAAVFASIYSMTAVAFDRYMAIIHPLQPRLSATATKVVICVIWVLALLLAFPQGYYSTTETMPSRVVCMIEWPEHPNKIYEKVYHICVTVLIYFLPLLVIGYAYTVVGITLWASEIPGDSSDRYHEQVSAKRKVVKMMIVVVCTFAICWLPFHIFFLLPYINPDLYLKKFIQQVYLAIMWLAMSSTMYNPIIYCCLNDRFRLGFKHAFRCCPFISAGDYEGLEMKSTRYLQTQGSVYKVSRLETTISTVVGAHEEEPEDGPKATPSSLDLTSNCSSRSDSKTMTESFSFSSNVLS

A word on the IC50: it is the concentration that inhibits the measured activity by half. A higher IC50 goes with a need for much substance. Consider `Cc1cc(C)cc(CN(C)C(=O)[C@H](Cc2c[nH]c3ccccc23)NC(=O)c2ccccc2)c1`, for which the half-inhibitory concentration (IC50) on Substance-K receptor was over 5000 nM; against Substance-P receptor [1], over 1100 nM.
Taken in the same sequence, the figures for `O=C(NCCc1ccccc1)[C@H](Cc1c[nH]c2ccccc12)NC(=O)N1CCC2(CCc3ccccc32)CC1` were 211 nM and 332 nM.
Taken in the same sequence, the figures for `CSN1CC2(CCN(C(=O)N[C@@H](Cc3c[nH]c4ccccc34)C(=O)N(C)Cc3ccccc3)CC2)c2ccccc21` were 24 nM and 14 nM.
Regarding `CSN1CC2(CCN(C(=O)N[C@@H](Cc3c[nH]c4ccccc34)C(=O)N(C)Cc3cc(C(F)(F)F)cc(C(F)(F)F)c3)CC2)c2ccccc21`, the values for the 50% inhibitory concentration (IC50) against Substance-K receptor and against Substance-P receptor [1] were 4200 nM and 1 nM, respectively.
As usually defined, the inhibition is how much of the control response was suppressed. On to `O=C(Nc1ccccc1)[C@H](Cc1c[nH]c2ccccc12)NC(=O)N1CCC2(CCc3ccccc32)CC1`, for which the 50% inhibitory concentration (IC50) against Substance-K receptor was 2100 nM. In addition, the inhibition against Substance-P receptor [2] came to 39%.
The compound `CC(=O)N[C@@H](Cc1c[nH]c2ccccc12)C(=O)OCc1cc(C(F)(F)F)cc(C(F)(F)F)c1` [L-732138] returned an IC50 against Substance-K receptor of over 5000 nM.
Take `CSN1CC2(CCN(C(=O)N[C@@H](Cc3c[nH]c4ccccc34)C(=O)OCc3cc(C(F)(F)F)cc(C(F)(F)F)c3)CC2)c2ccccc21`: the results for the IC50 against Substance-K receptor and at Substance-P receptor [1] were over 1000 nM and 0.58 nM, respectively.
As for `CNC(=O)N[C@@H](Cc1c[nH]c2ccccc12)C(=O)OCc1cc(C)cc(C)c1`, the IC50 against Substance-K receptor is over 5000 nM.
For `O=C(NCc1ccccc1)[C@H](Cc1c[nH]c2ccccc12)NC(=O)N1CCC2(CCc3ccccc32)CC1`, the IC50 on Substance-K receptor stood at 14 nM; at Substance-P receptor [1], 227 nM.
Taken in the same sequence, the figures for `CC(=O)NC1(c2ccccc2)CCN(C(=O)N[C@@H](Cc2c[nH]c3ccccc23)C(=O)N(C)Cc2ccccc2)CC1` were 928 nM and 77 nM.
Taken in the same sequence, the figures for `CN(Cc1ccccc1)C(=O)[C@H](Cc1c[nH]c2ccccc12)NC(=O)N1CCC2(C=Cc3ccccc32)CC1` were 18 nM and 68 nM.
Taken in the same sequence, the figures for `CN(Cc1ccccc1)C(=O)[C@H](Cc1c[nH]c2ccccc12)NC(=O)N1CCC2(CCc3ccccc32)CC1` were 27 nM and 56 nM.
Regarding `CSN1CC2(CCN(C(=O)N[C@@H](Cc3c[nH]c4ccccc34)C(=O)OCc3ccccc3)CC2)c2ccccc21`, the IC50 against Substance-K receptor worked out at 4500 nM; on Substance-P receptor [1] it was 23 nM.
Taken in the same sequence, the figures for `CSN1CC2(CCN(C(=O)N[C@@H](COCc3ccccc3)C(=O)N(C)Cc3ccccc3)CC2)c2ccccc21` were 258 nM and 480 nM.
For `CCN(Cc1ccccc1)C(=O)[C@H](Cc1c[nH]c2ccccc12)NC(=O)N1CCC2(CCc3ccccc32)CC1`, in that order: 139 nM and 242 nM.
Taken in the same sequence, the figures for `CSN1CC2(CCN(C(=O)N[C@H](Cc3c[nH]c4ccccc34)C(=O)N(C)Cc3ccccc3)CC2)c2ccccc21` were 577 nM and 164 nM.
For `CC(=O)NC1(c2ccccc2)CCN(CC[C@H](CN(C)C(=O)c2ccccc2)c2ccc(Cl)c(Cl)c2)CC1` [SAREDUTANT], the half-maximal inhibitory concentration (IC50) worked out at 0.13 nM at Substance-K receptor and 800 nM at Substance-P receptor [1].
Taken in the same sequence, the figures for `CSN1CC2(CCN(C(=O)N[C@@H](CCc3ccccc3)C(=O)N(C)Cc3ccccc3)CC2)c2ccccc21` were 166 nM and 1100 nM.
Taken in the same sequence, the figures for `CSN1CC2(CCN(C(=O)N[C@@H](Cc3c[nH]c4ccccc34)C(=O)N(C)Cc3cc(C)cc(C)c3)CC2)c2ccccc21` were 1400 nM and 10 nM.
